Patent US9416347B2, “Method of treating bacterial contamination in a microalgae culture with pH shock” (Heliae Development LLC, priority 2014, dated 2016)
Like-named read-outs stand apart in the source and are kept apart here.

How the values were obtained:
Chlorella sp. [1] = details: culture at 1,029 mg/L acetate, pH 3.5 for 15 minutes, returned to 7.5 with 2 M NaOH
Protocol: The pH treated culture samples were maintained at the culture pH of 3.5 for 15 minutes before returning the culture pH to 7.5 by adding 2 M NaOH.
The pH treatment was applied directly into the culture, without previous concentration or subsequent dilution through inoculation into a fresh media. All cultures were incubated with shaking at 100 rpm in 5% carbon dioxide and 25° C. […] 100 μM photon/m^2 s of light was also provided to create mixotrophic growth conditions. The cultures were monitored for 4 days (96 hours with dry weight samples taken at 0, 48, and 96 hours). Residual acetate analyses were carried at the end of the experiment.

Chlorella sp. [2] = details: pH lowered from about 7.5 to 3.5 for 15 minutes, raised back with 5M NaOH
Protocol: The first 400 ml culture was maintained as an untreated control at a pH of about 7.5. […] The pH treatments were applied directly to the cultures, without previous concentration of the microalgae or subsequent dilution through inoculation into fresh culture media. All cultures were incubated with shaking at 100 rpm in 5% carbon dioxide and 25° C. […] 100 μM photon/m^2 s of light was also provided to create mixotrophic growth conditions. The cultures were monitored for 4 days (96 hours with dry weight samples taken at 0, 48, and 96 hours). Live bacteria count samples were taken at 0 and 48 hours, and quantified using aerobic colony forming units (CFU) obtained from plate counts utilizing Petrifilm available from 3M (St. Paul, Minn.). A bacteria to microalgae ratio was also quantified using guava flow cytometry.

[3] = test system: live bacteria in mixotrophic culture of Chlorella; details: for Total live bacteria count: pH lowered to 3.5 with hydrochloric acid
Protocol: The 2 L sample was split into equal 1 L cultures in flasks, and incubated at 25° C. and 100 rpm (shaking) for 24 hours to allow metabolization of any residual acetate in the cultures. The two cultures were then blended together and then separated into equal 1 L cultures to ensure homogeneity in the two cultures. […] Samples were taken from both cultures to quantify the initial live bacteria count and subsequent counts using aerobic colony forming units (CFU) obtained from plate counts utilizing Petrifilm available from 3M (St. Paul, Minn.).

Chlorella sp. [4] = test system: Chlorella sp.
Protocol: 100 mL volume cultures were prepared in 250 mL flasks, and cultured at a temperature of 25° C., a shaking frequency of 100 rpm, and a light intensity of 100 μM photon/m^2 s for 7 days (168 hours). The cultures were inoculated into two times BG-11 culture media at a cell density of 1.12 g/L. The different treatments of sodium acetate consisted of concentrations of 0, 2.5, 5, 7.5, 10, 20, 30, and 40 g/L. Samples were taken every 24 hours to measure the cell dry weights (g/L) of the cultures.

[5] = in water; cited from earlier work

CC(=O)O [Acetic acid, acetic acid]
Cell Dry Weight (Chlorella sp. [1]; 0 h): 0.80 ± 0.02 g/L | Cell Dry Weight (Chlorella sp. [1]; 48 h): 0.78 ± 0.06 g/L | Cell Dry Weight (Chlorella sp. [1]; 96 h): 0.89 ± 0.01 g/L | cell dry weight (Chlorella sp. [2]; 0 h): 0.76 ± 0.00 g/L | cell dry weight (Chlorella sp. [2]; 48 h): 1.73 ± 0.04 g/L | cell dry weight (Chlorella sp. [2]; 96 h): 3.46 ± 0.09 g/L

CC(=O)[O-].[Na+] [sodium acetate]
live bacteria counts (below detection) ([3]; 2.5 g/L sodium acetate, pH 3.5 with HCl, after 60 minutes): < 1,000 CFU/ml | live bacteria ([3]; 2.5 g/L sodium acetate, pH 3.5 with HCl, after 180 minutes): no measurable live bacterium | Total live bacteria count ([3]; 2.5 g/L sodium acetate, 0 min): 5.00E+06 CFU | Total live bacteria count ([3]; 2.5 g/L sodium acetate, 5 min): 8.00E+04 CFU | Total live bacteria count ([3]; 2.5 g/L sodium acetate, 15 min): 4.00E+04 CFU | Total live bacteria count ([3]; 2.5 g/L sodium acetate, 30 min): none detected | Total live bacteria count ([3]; 2.5 g/L sodium acetate, 60 min): 1.00E+03 CFU | Total live bacteria count ([3]; 2.5 g/L sodium acetate, 180 min): 1.00E+03 CFU | reduction in live bacteria ([3]; sodium acetate present and treated with second acid, after 60 minutes): 3.5 order of magnitude | Growth of Chlorella (Chlorella sp. [4]; 2.5 g/L sodium acetate): 0.620 g/L day | Cell dry weights of treatments by Concentration of Sodium Acetate (Chlorella sp. [4]; 2.5 g/L sodium acetate, 0 h): 0.12 g/L | Cell dry weights of treatments by Concentration of Sodium Acetate (Chlorella sp. [4]; 2.5 g/L sodium acetate, 24 h): 0.23 g/L | Cell dry weights of treatments by Concentration of Sodium Acetate (Chlorella sp. [4]; 2.5 g/L sodium acetate, 48 h): 0.85 g/L | Cell dry weights of treatments by Concentration of Sodium Acetate (Chlorella sp. [4]; 2.5 g/L sodium acetate, 72 h): 1.10 g/L | Cell dry weights of treatments by Concentration of Sodium Acetate (Chlorella sp. [4]; 2.5 g/L sodium acetate, 144 h): 2.72 g/L | Cell dry weights of treatments by Concentration of Sodium Acetate (Chlorella sp. [4]; 2.5 g/L sodium acetate, 168 h): 3.23 g/L | Growth of Chlorella (Chlorella sp. [4]; 5 g/L sodium acetate): 0.065 g/L day | Cell dry weights of treatments by Concentration of Sodium Acetate (Chlorella sp. [4]; 5 g/L sodium acetate, 0 h): 0.12 g/L | Cell dry weights of treatments by Concentration of Sodium Acetate (Chlorella sp. [4]; 5 g/L sodium acetate, 24 h): 0.19 g/L | Cell dry weights of treatments by Concentration of Sodium Acetate (Chlorella sp. [4]; 5 g/L sodium acetate, 48 h): 0.25 g/L | Cell dry weights of treatments by Concentration of Sodium Acetate (Chlorella sp. [4]; 5 g/L sodium acetate, 72 h): 0.55 g/L | Cell dry weights of treatments by Concentration of Sodium Acetate (Chlorella sp. [4]; 5 g/L sodium acetate, 144 h): 1.89 g/L | Cell dry weights of treatments by Concentration of Sodium Acetate (Chlorella sp. [4]; 5 g/L sodium acetate, 168 h): 2.41 g/L | Cell dry weights of treatments by Concentration of Sodium Acetate (Chlorella sp. [4]; 7.5 g/L sodium acetate, 0 h): 0.12 g/L | Cell dry weights of treatments by Concentration of Sodium Acetate (Chlorella sp. [4]; 7.5 g/L sodium acetate, 24 h): 0.17 g/L | Cell dry weights of treatments by Concentration of Sodium Acetate (Chlorella sp. [4]; 7.5 g/L sodium acetate, 48 h): 0.15 g/L | Cell dry weights of treatments by Concentration of Sodium Acetate (Chlorella sp. [4]; 7.5 g/L sodium acetate, 72 h): 0.13 g/L | Cell dry weights of treatments by Concentration of Sodium Acetate (Chlorella sp. [4]; 7.5 g/L sodium acetate, 144 h): 0.10 g/L | Cell dry weights of treatments by Concentration of Sodium Acetate (Chlorella sp. [4]; 7.5 g/L sodium acetate, 168 h): 0.07 g/L | Cell dry weights of treatments by Concentration of Sodium Acetate (Chlorella sp. [4]; 10 g/L sodium acetate, 0 h): 0.12 g/L | Cell dry weights of treatments by Concentration of Sodium Acetate (Chlorella sp. [4]; 10 g/L sodium acetate, 24 h): 0.13 g/L | Cell dry weights of treatments by Concentration of Sodium Acetate (Chlorella sp. [4]; 10 g/L sodium acetate, 48 h): 0.16 g/L | Cell dry weights of treatments by Concentration of Sodium Acetate (Chlorella sp. [4]; 10 g/L sodium acetate, 72 h): 0.11 g/L | Cell dry weights of treatments by Concentration of Sodium Acetate (Chlorella sp. [4]; 10 g/L sodium acetate, 144 h): 0.09 g/L | Cell dry weights of treatments by Concentration of Sodium Acetate (Chlorella sp. [4]; 10 g/L sodium acetate, 168 h): 0.00 g/L | Cell dry weights of treatments by Concentration of Sodium Acetate (Chlorella sp. [4]; 20 g/L sodium acetate, 0 h): 0.12 g/L | Cell dry weights of treatments by Concentration of Sodium Acetate (Chlorella sp. [4]; 20 g/L sodium acetate, 24 h): 0.16 g/L | Cell dry weights of treatments by Concentration of Sodium Acetate (Chlorella sp. [4]; 20 g/L sodium acetate, 48 h): 0.13 g/L | Cell dry weights of treatments by Concentration of Sodium Acetate (Chlorella sp. [4]; 20 g/L sodium acetate, 72 h): 0.12 g/L | Cell dry weights of treatments by Concentration of Sodium Acetate (Chlorella sp. [4]; 20 g/L sodium acetate, 144 h): 0.07 g/L | Cell dry weights of treatments by Concentration of Sodium Acetate (Chlorella sp. [4]; 20 g/L sodium acetate, 168 h): 0.00 g/L | Cell dry weights of treatments by Concentration of Sodium Acetate (Chlorella sp. [4]; 30 g/L sodium acetate, 0 h): 0.12 g/L | Cell dry weights of treatments by Concentration of Sodium Acetate (Chlorella sp. [4]; 30 g/L sodium acetate, 24 h): 0.14 g/L | Cell dry weights of treatments by Concentration of Sodium Acetate (Chlorella sp. [4]; 30 g/L sodium acetate, 48 h): 0.11 g/L | Cell dry weights of treatments by Concentration of Sodium Acetate (Chlorella sp. [4]; 30 g/L sodium acetate, 72 h): 0.09 g/L | Cell dry weights of treatments by Concentration of Sodium Acetate (Chlorella sp. [4]; 30 g/L sodium acetate, 144 h): 0.08 g/L | Cell dry weights of treatments by Concentration of Sodium Acetate (Chlorella sp. [4]; 30 g/L sodium acetate, 168 h): 0.00 g/L | Cell dry weights of treatments by Concentration of Sodium Acetate (Chlorella sp. [4]; 40 g/L sodium acetate, 0 h): 0.12 g/L | Cell dry weights of treatments by Concentration of Sodium Acetate (Chlorella sp. [4]; 40 g/L sodium acetate, 24 h): 0.11 g/L | Cell dry weights of treatments by Concentration of Sodium Acetate (Chlorella sp. [4]; 40 g/L sodium acetate, 48 h): 0.09 g/L | Cell dry weights of treatments by Concentration of Sodium Acetate (Chlorella sp. [4]; 40 g/L sodium acetate, 72 h): 0.10 g/L | Cell dry weights of treatments by Concentration of Sodium Acetate (Chlorella sp. [4]; 40 g/L sodium acetate, 144 h): 0.09 g/L | Cell dry weights of treatments by Concentration of Sodium Acetate (Chlorella sp. [4]; 40 g/L sodium acetate, 168 h): 0.00 g/L | tolerance limit for this strain of Chlorella (Chlorella sp. [4]; as restated in Example 10): 7500 mg/L | Growth of Chlorella (Chlorella sp. [4]; concentrations of 7.5 g/L and higher): did not show any growth | acetate concentration tolerance for Chlorella (Chlorella sp. [4]; mixotrophic flask culture, 7 days): approximately 7.5 g/L

CCCCCCCCCCCCCCCC(=O)O [palmitic acid]
pKa [5]: about 4.7

CC(=O)C(=O)O [pyruvic acid]
pKa [5]: about 2.5

O=C(O)CC(O)C(=O)O (centres unmarked) [malic acid]
pKa [5]: about 3.4
